{
  "source": "patent US10407437B2",
  "about": "“Camptothecin derivatives and uses thereof” (Los Gatos Pharmaceuticals, Inc., priority 2016, dated 2019)",
  "key": {"SW620 cells": {"system": "SW620 cells", "assay": "Anti-proliferative activity, AlamarBlue assay, SW620 cells", "assay_type": "cell-based, human", "conditions": "for IC50: SW620 human colorectal adenocarcinoma cells, 48-72 hours with compound, AlamarBlue, sigmoidal regression curve, read-out: IC50 of anti-proliferative drugs in SW620 cells", "procedure": "(§1) Human colorectal adenocarcinoma cell lines HT29 and SW620, as well as murine colon carcinoma cell line CT26, were purchased from the American Type Culture Collection (ATCC) and grown in either Dulbecco's Modified Eagle Medium (DMEM) or Roswell Park Memorial Institute (RPMI) medium from Corning and Life Technologies, respectively. These media were supplemented with 10% fetal bovine serum (FBS, Atlanta Biologicals), as well as 1 mM sodium pyruvate (Corning) and 10 mM HEPES (Fisher) for CT26 cells. Cells were grown in Corning 75 cm^2 flasks and split approximately 6 days before plating, with a refeed of fresh media the day prior to plating. Anti-proliferative drugs 2, 3 and SN38, were reconstituted in DMSO for storage at −20° C. until use. AlamarBlue, a colorimetric cell metabolism reagent, was purchased from Life Technologies.\nTo qualify AlamarBlue incubation time and required cell density, cells were plated into flat bottom 96 well plates (Techno Plastic Products, Trasadingen, Switzerland) at plating densities from 4×10^4 to 1.25×10^3 cells per well. The cells were incubated at 37° C. inside a Nu-Aire TS Autoflow incubator with 5% CO2 and humidity for 48-72 hours, AlamarBlue reagent was then added to all wells, equivalent to 10% of the culture volume or 20 μL. The plates were returned to the 37° C. incubator, and the absorbance at 570 and 600 nm were assessed using a Bio-Tek Epoch microplate reader at 1, 2, 4, 7 and in some experiment 24 hours post addition of AlamarBlue. Once the optimum cell density and incubation time was determined for each cell line, testing of the anti-proliferative drugs on the cells was initiated. […] After addition of AlamarBlue, plates were incubated for 4 hours at 37° C. and absorbance assessed using the Epoch microplate reader. Absorbances were used to calculate the % inhibition for each well using the following equation, where O1 is the molar extinction coefficient of oxidized AlamarBlue at 570 nm (80586), O2 is the molar extinction coefficient of oxidized AlamarBlue at 600 nm (117216), A1 is the absorbance of the test wells at 570 nm, A2 is the absorbance of the test wells at 600 nm, P1 is the absorbance of the control wells with AlamarBlue but without test agent at 570, and P2 is the absorbance of the control wells with AlamarBlue but without the test agent at 600. % difference between=(O2×A1)−(O1×A2)×100treated and untreated cells (O2×P1)−(O1×P2)\n(§2) The dose response data generated by these values was used to calculate the half maximal inhibitory concentration (IC50) using a regression curve (3 or 4 parameter logistic sigmoidal curve or sigmoidal sigmoid curve) in Sigma Plot, version 12.5. Statistical differences were calculated using SPSS Statistics software, version 17.0, using the independent t-test with an α of 0.05. […]"}, "CT26 cells": {"system": "CT26 cells", "assay": "Anti-proliferative activity, AlamarBlue assay, CT26 cells", "assay_type": "cell-based", "conditions": "CT26 murine colon carcinoma cells, 48-72 hours with compound, 4 parameter regression curve, read-out: IC50 of anti-proliferative drugs in CT26 cells", "procedure": "as §1\nTo qualify AlamarBlue incubation time and required cell density, cells were plated into flat bottom 96 well plates (Techno Plastic Products, Trasadingen, Switzerland) at plating densities from 4×10^4 to 1.25×10^3 cells per well. […] The plates were returned to the 37° C. incubator, and the absorbance at 570 and 600 nm were assessed using a Bio-Tek Epoch microplate reader at 1, 2, 4, 7 and in some experiment 24 hours post addition of AlamarBlue. Once the optimum cell density and incubation time was determined for each cell line, testing of the anti-proliferative drugs on the cells was initiated. […] After addition of AlamarBlue, plates were incubated for 4 hours at 37° C. and absorbance assessed using the Epoch microplate reader. […]\nas §2"}, "HT29 cells": {"system": "HT29 cells", "assay": "Anti-proliferative activity, AlamarBlue assay, HT29 cells", "assay_type": "cell-based, human", "conditions": "for % inhibition compared to SN38 / inhibition at 33.3 µM: HT29 cells; for % inhibition compared to SN38: highest concentration tested, 100 μM; for IC50: HT29 human colorectal adenocarcinoma cells, 48-72 hours with compound, AlamarBlue, sigmoidal logistic regression curve, read-out: IC50 of anti-proliferative drugs in HT29 cells; for inhibition at 33.3 µM: Homo sapiens", "procedure": "as §1\nTo qualify AlamarBlue incubation time and required cell density, cells were plated into flat bottom 96 well plates (Techno Plastic Products, Trasadingen, Switzerland) at plating densities from 4×10^4 to 1.25×10^3 cells per well. The cells were incubated at 37° C. inside a Nu-Aire TS Autoflow incubator with 5% CO2 and humidity for 48-72 hours, AlamarBlue reagent was then added to all wells, equivalent to 10% of the culture volume or 20 μL. The plates were returned to the 37° C. incubator, and the absorbance at 570 and 600 nm were assessed using a Bio-Tek Epoch microplate reader at 1, 2, 4, 7 and in some experiment 24 hours post addition of AlamarBlue. Once the optimum cell density and incubation time was determined for each cell line, testing of the anti-proliferative drugs on the cells was initiated. For each cell line, cells were plated at 5×10^3 cells per well and incubated at 37° C. for 24 hours, at which time the anti-proliferative compounds were added. […] Aliquots of anti-proliferatives were thawed, diluted in media appropriate for each cell line, and serially diluted 1:3. A serial pipetter, was used to deliver 100 μl of each concentration of anti-proliferative compound to the appropriate wells in triplicate, the plate was tapped gently to mix, and then incubated at 37° C. for 48-72 hours. Control wells containing media alone and media with an equal percentage of DMSO in comparison to the initial anti-proliferative dilution were also established in each plate. After a minimum of 48 hours of incubation, 20 μl of AlamarBlue was added to each experimental well as well as the negative control wells. AlamarBlue positive control wells, containing 200 μl of 100% reduced AlamarBlue, were also established to provide a colorimetric endpoint reference for the assay. After addition of AlamarBlue, plates were incubated for 4 hours at 37° C. and absorbance assessed using the Epoch microplate reader. Absorbances were used to calculate the % inhibition for each well using the following equation, where O1 is the molar extinction coefficient of oxidized AlamarBlue at 570 nm (80586), O2 is the molar extinction coefficient of oxidized AlamarBlue at 600 nm (117216), A1 is the absorbance of the test wells at 570 nm, A2 is the absorbance of the test wells at 600 nm, P1 is the absorbance of the control wells with AlamarBlue but without test agent at 570, and P2 is the absorbance of the control wells with AlamarBlue but without the test agent at 600. % difference between=(O2×A1)−(O1×A2)×100treated and untreated cells (O2×P1)−(O1×P2)\nas §2"}},
  "note": "Like-named read-outs stand apart in the source and are kept apart here.",
  "data": [
    {"smiles": "CCCCC(=O)O[C@]1(CC)C(=O)OCc2c1cc1n(c2=O)Cc2c-1nc1ccc(O)cc1c2CC", "note": "[Compound 2]", "values": [
      {"measurement": "IC50", "setting": "SW620 cells; SW-620", "result": 1.9, "unit": "µM"},
      {"measurement": "IC50", "setting": "CT26 cells; Mus musculus", "result": 18, "unit": "µM"},
      {"measurement": "% inhibition compared to SN38", "setting": "HT29 cells", "result": "not significantly different from SN38"},
      {"measurement": "IC50", "setting": "HT29 cells; HT-29", "result": 5.6, "unit": "µM"},
      {"measurement": "inhibition at 33.3 µM", "setting": "HT29 cells; HT-29", "result": "> 54", "unit": "%"}
    ]},
    {"smiles": "CCCCCCCCCCCCCC(=O)O[C@]1(CC)C(=O)OCc2c1cc1n(c2=O)Cc2c-1nc1ccc(O)cc1c2CC", "note": "[Compound 3]", "values": [
      {"measurement": "IC50", "setting": "SW620 cells; SW-620", "result": 10.3, "unit": "µM"},
      {"measurement": "IC50", "setting": "CT26 cells; Mus musculus", "result": 14.2, "unit": "µM"},
      {"measurement": "% inhibition compared to SN38", "setting": "HT29 cells", "result": "not significantly different from SN38"},
      {"measurement": "IC50", "setting": "HT29 cells; HT-29", "result": 17.1, "unit": "µM"},
      {"measurement": "inhibition at 33.3 µM", "setting": "HT29 cells; HT-29", "result": "> 54", "unit": "%"}
    ]},
    {"smiles": "CCc1c2c(nc3ccc(O)cc13)-c1cc3c(c(=O)n1C2)COC(=O)[C@]3(O)CC", "note": "[SN38, reference compound]", "values": [
      {"measurement": "% inhibition", "setting": "SW620 cells; SW620 cells, throughout all concentrations tested (100 μM to 0.4 μM)", "result": "over 55%"},
      {"measurement": "IC50", "setting": "SW620 cells", "result": 0.7, "unit": "µM"},
      {"measurement": "IC50", "setting": "CT26 cells", "result": 0.6, "unit": "µM"},
      {"measurement": "IC50", "setting": "HT29 cells", "result": 0.2, "unit": "µM"}
    ]}
  ]
}
